Reference: patent US7195901B1 (priority 2004, dated 2007)

Tested on: yeast endogenous DGAT
Assay type: biochemical, S. cerevisiae
Conditions: 1 mM diricinolein; yeast grown under repression (2% glucose) condition

Substance: 1,2-diricinolein
- absolute incorporation of 14C-oleate into RRO: less than 20 pmol/mg/min
